Tests used:
[1] = system: green peach aphid (Myzus persicae); test: Myzus test (MYZUPE spray treatment); assay type: in vivo; settings: 144 h, sprayed Chinese cabbage discs, after 6 days, read-out: activity (kill of aphids)
Method: Myzus Test (MYZUPE Spray Treatment)
Solvents: 78 parts by weight of acetone
(§1) • 1.5 parts by weight of dimethylformamide Emulsifier: 0.5 part by weight of alkylaryl polyglycol ether
(§2) To produce a suitable preparation of active compound, 1 part by weight of active compound is mixed with the stated amount of solvents and emulsifier, and the concentrate is diluted with emulsifier-containing water to the desired concentration.
Discs of Chinese cabbage (Brassica pekinensis) infested by all stages of the green peach aphid (Myzus persicae) are sprayed with an active compound preparation of the desired concentration.
After 6 days, the effect in % is determined. 100% means that all of the aphids have been killed; 0% means that none of the aphids have been killed.

[2] = logP by HPLC on reversed-phase columns (C 18), EEC Directive 79/831 Annex V.A8; assay type: physicochemical; settings: reversed-phase C18 HPLC column; HPLC, reversed-phase C 18, acidic range pH 2.7, 0.1% aqueous formic acid/acetonitrile; read-out: log P
Method: The logP values reported in the table above and in the Preparation Examples were determined in accordance with EEC Directive 79/831 Annex V.A8 by HPLC (High Performance Liquid Chromatography) on reversed-phase columns (C 18), with the following methods:
The LC-MS determination in the acidic range is carried out at pH 2.7 using the mobile phases 0.1% aqueous formic acid and acetonitrile (contains 0.1% formic acid), linear gradient from 10% acetonitrile to 95% acetonitrile
Calibration was carried out using unbranched alkan-2-ones (having from 3 to 16 carbon atoms) with known logP values (the logP values were determined by the retention times using linear interpolation between two successive alkanones).

[3] = system: caterpillars of the armyworm (Spodoptera frugiperda); test: Spodoptera frugiperda test (SPODFR spray treatment); assay type: in vivo; settings: foliar, 168 h, sprayed maize leaf discs, after 7 days, read-out: activity (kill of caterpillars)
Method: Spodoptera frugiperda Test (SPODFR Spray Treatment)
Solvents: 78.0 parts by weight of acetone
as §1, §2
Discs of maize leaves (Zea mays) are sprayed with an active compound preparation of the desired concentration and, after drying, populated with caterpillars of the armyworm (Spodoptera frugiperda).
After 7 days, the effect in % is determined. 100% means that all caterpillars have been killed; 0% means that none of the caterpillars have been killed.

[4] = system: larvae of the mustard beetle (Phaedon cochleariae); test: Phaedon test (PHAECO spray treatment); assay type: in vivo; settings: 168 h, sprayed Chinese cabbage discs, after 7 days, read-out: activity (kill of beetle larvae)
Method: Phaedon Test ([…] Spray Treatment) Solvents: 78.0 parts by weight of acetone • • 1.5 parts by weight of dimethylformamide Emulsifier: 0.5 part by weight of alkylaryl polyglycol ether To produce a suitable preparation of active compound, 1 part by weight of active compound is mixed with the stated amount of solvents and emulsifier, and the concentrate is diluted with emulsifier-containing water to the desired concentration. Discs of Chinese cabbage (Brassica pekinensis) are sprayed with an active compound preparation of the desired concentration and, after drying, populated with larvae of the mustard beetle (Phaedon cochleariae).

[5] = system: adult Musca domestica; test: Musca domestica test (MUSCDO); assay type: in vivo; settings: treated sponge, after 2 days
Method: Musca domestica Test (MUSCDO)
(§3) Solvent: dimethyl sulphoxide
(§4) To produce a suitable preparation of active compound, 10 mg of active compound are mixed with 0.5 ml of dimethyl sulphoxide and the concentrate is diluted with water to the desired concentration.
Vessels containing a sponge treated with the active compound preparation of the desired concentration are populated with adult Musca domestica.
After 2 days, the kill in % is determined 100% means that all of the flies have been killed; 0% means that none of the flies have been killed.

[6] = system: Boophilus microplus; test: Boophilus microplus test (BOOPMI injection); assay type: in vivo; settings: 10 μg/animal, injection into the abdomen, after 7 days
Method: Boophilus microplus Test (BOOPMI Injection)
as §3
To produce a suitable preparation of active compound, 10 mg of active compound are mixed with 0.5 ml of solvent and the concentrate is diluted with solvent to the desired concentration.
The active compound solution is injected into the abdomen (Boophilus microplus), and the animals are transferred into dishes and stored in a climate-controlled room. The activity is assessed by […] of fertile eggs.
After 7 days, the effect in % is determined 100% means that none of the ticks has laid any fertile eggs.

[7] = system: Lucilia cuprina larvae; test: Lucilia cuprina test (LUCICU); assay type: in vivo; settings: 100 ppm, treated horse meat, after 2 days
Method: Lucilia cuprina Test (LUCICU)
as §3, §4
Vessels containing horse meat treated with the active compound of the desired concentration are populated with about 20 Lucilia cuprina larvae.
After 2 days, the kill in % is determined 100% means that all of the larvae have been killed; 0% means that none of the larvae have been killed.

| Structure (SMILES) | pest or weed control at 100 g/ha [1] [%] | chromatographic logP [2] | pest or weed control at 100 g/ha [3] [%] | pest or weed control at 100 g/ha [4] [%] | efficacy (kill) ([5]; 100 ppm) [%] | activity (100% = none of the ticks has laid any fertile eggs) [6] [%] | efficacy (kill) [7] [%] | efficacy (kill) ([5]; 20 ppm) [%] | pest or weed control at 500 g/ha ([3]; 500 g/ha) [%] | pest or weed control at 500 g/ha ([4]; 500 g/ha) [%] |
| --- | --- | --- | --- | --- | --- | --- | --- | --- | --- | --- |
| Cc1cc(I)cc(C(=O)O)c1NC(=O)c1cc(Cn2nnc(C(F)(F)C(F)(F)F)n2)nn1-c1ncccc1Br [Compound 2] | 80 | 3.69 | 100 | 100 |  |  |  |  |  |  |
| Cc1cc(Cl)cc(C(=S)NC(C)(C)C)c1NC(=O)c1cc(Cn2nnc(C(F)(F)F)n2)nn1-c1ncccc1Cl [Compound 6] |  | 4.33 | 100 | 100 | 90 | 100 | 100 |  |  |  |
| CNC(=S)c1cc(Cl)cc(C)c1NC(=O)c1cc(Cn2nnc(C(F)(F)F)n2)nn1-c1ncccc1Cl [Compound 7] | 100 | 3.42 | 100 | 100 |  | 100 | 100 | 90 |  |  |
| Cc1cc(Br)cc(OC(F)F)c1NC(=O)c1cc(Cn2nnc(C(F)(F)F)n2)nn1-c1ncccc1Cl [Compound 8] |  | 3.77 | 100 | 100 |  |  | 100 |  |  |  |
| Cc1cc(C#N)cc(OC(F)F)c1NC(=O)c1cc(Cn2nnc(C(F)(F)F)n2)nn1-c1ncccc1Cl [Compound 9] | 90 | 2.85 | 100 | 100 | 80 |  | 100 |  |  |  |
| O=C(O)c1cc(Cl)cc(Cl)c1NC(=O)c1cc(Cn2cnc(C(F)F)n2)nn1-c1ncccc1Cl [Compound 12] |  | 2.2 |  |  |  |  | 90 |  | 100 | 100 |
| Cc1cc(C#N)cc(C(=O)O)c1NC(=O)c1cc(Cn2nnc(C(F)(C(F)(F)F)C(F)(F)F)n2)nn1-c1ncccc1Cl [Compound 13] | 80 | 3.36 | 100 | 100 |  |  |  |  |  |  |
| Cc1cc(C#N)cc(C(=O)O)c1NC(=O)c1cc(Cn2nnc(C(F)(F)F)n2)nn1-c1ncccc1Cl [Compound 14] | 80 | 2.65 | 100 |  |  |  |  |  |  |  |
| Cc1nc(C(F)(F)F)nn1Cc1cc(C(=O)Nc2c(Cl)cc(Cl)cc2C(=O)O)n(-c2ncccc2Cl)n1 [Compound 19] | 80 | 2.68 |  |  |  |  |  |  |  |  |
| O=C(O)c1cc(Cl)cc(Cl)c1NC(=O)c1cc(Cn2ncc(C(F)(F)F)n2)nn1-c1ncccc1Cl [Compound 26] | 90 | 3.03 | 100 | 100 |  |  |  |  |  |  |
| O=C(O)c1cc(Cl)cc(Cl)c1NC(=O)c1cc(Cn2cc(C(F)(F)F)nn2)nn1-c1ncccc1Cl [Compound 28] | 100 | 2.69 |  | 100 |  |  |  |  |  |  |
| Cc1cc(Cl)cc(C(=O)O)c1NC(=O)c1cc(Cn2nnc(C(F)(F)F)n2)nn1-c1ncccc1Cl [Compound 30] | 80 | 3.05 | 83 |  |  |  |  |  |  |  |
| Cc1cc(C#N)cc(C(=S)NC(C)(C)C)c1NC(=O)c1cc(Cn2nnc(C(F)(F)F)n2)nn1-c1ncccc1Cl [Compound 31] | 90 | 3.75 | 83 | 100 |  |  |  |  |  |  |
| CNC(=S)c1cc(I)cc(C)c1NC(=O)c1cc(Cn2nnc(C(F)(F)F)n2)nn1-c1ncccc1Cl [Compound 36] | 100 | 3.73 | 100 | 100 |  |  |  |  |  |  |

From patent US8658800B2 (priority 2010, dated 2014)
